From paper PMC9889419 (Pharmacological Reports, 2022)
pKi: −log10 of the molar value. Structures can show the parent of a compound that is named as a salt.

Tests used:
CYP1A2 = biological target: T1, CYP1A2 (Homo sapiens, UniProt P05177); assay: Human cytochrome P450 inhibition (human liver microsomes); format: in vitro ADME
T1 construct: tissue celsis F008085-CST; host or cells: human liver microsomes
T1 sequence (P05177 1-516): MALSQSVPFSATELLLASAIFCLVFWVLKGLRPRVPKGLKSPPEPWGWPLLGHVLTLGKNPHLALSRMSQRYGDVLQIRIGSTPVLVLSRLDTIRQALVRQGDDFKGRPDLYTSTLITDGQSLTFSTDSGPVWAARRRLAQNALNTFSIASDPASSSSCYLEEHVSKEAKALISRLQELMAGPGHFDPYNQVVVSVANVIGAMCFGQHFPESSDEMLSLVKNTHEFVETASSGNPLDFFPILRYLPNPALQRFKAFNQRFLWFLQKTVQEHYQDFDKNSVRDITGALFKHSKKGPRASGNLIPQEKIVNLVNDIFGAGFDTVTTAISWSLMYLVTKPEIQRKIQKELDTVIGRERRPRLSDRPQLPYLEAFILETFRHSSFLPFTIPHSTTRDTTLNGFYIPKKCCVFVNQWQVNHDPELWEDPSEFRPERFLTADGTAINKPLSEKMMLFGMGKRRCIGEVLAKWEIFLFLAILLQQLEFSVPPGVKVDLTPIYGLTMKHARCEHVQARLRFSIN
Protocol: (§1) The selective reactions utilized for each enzyme were as follows: CYP1A2—phenacetin deethylation, CYP2A6—coumarin 7-hydroxylation, CYP2B6—7-ethoxy-4-trifluoromethyl coumarin O-deethylation, CYP2C9—diclofenac 4-hydroxylation, CYP2C19—S-mephenytoin 4-hydroxylation, CYP2D6—bufuralol 1’-hydroxylation, CYP2E1—chlorzoxazone 6-hydroxylation, CYP3A4—testosterone 6β-hydroxylation. For inhibitory evaluation, human liver microsomes and the tested compound (added in methanol as a solvent) were incubated under aerobic conditions with cytochrome P450 isozyme-selective substrates and excess NADPH at 37 °C. Incubations were for time periods over which the reaction in the absence of the compound, were determined to be linear, and proportional to the protein concentration. The human liver microsomes used were selected from the bank of those commercially available to be especially rich in the amount of the cytochrome P450 isozyme under investigation. However, it is important to note that the microsomes contained all the other isozymes in addition, and if reaction/substrate was less than specific, the other isozymes may have contributed to a minor extent to the enzyme activity determined. Following incubation, the reaction was terminated, an internal standard added, the metabolic products extracted and separated by reverse phase HPLC. Each assay was performed in duplicate, and the mean value calculated. The HPLC elutions were monitored by UV absorbance for all CYP reactions except those for CYP2A6, CYP2B6 and CYP2D6 where fluorescence monitoring was employed. Quantification was by comparison with authentic metabolites.

CYP2A6 = biological target: T2, CYP2A6 (Homo sapiens, UniProt P11509); assay: as above; format: in vitro ADME
T2 construct: tissue celsis X008064-LSL; host or cells: human liver microsomes
T2 sequence (P11509 1-494): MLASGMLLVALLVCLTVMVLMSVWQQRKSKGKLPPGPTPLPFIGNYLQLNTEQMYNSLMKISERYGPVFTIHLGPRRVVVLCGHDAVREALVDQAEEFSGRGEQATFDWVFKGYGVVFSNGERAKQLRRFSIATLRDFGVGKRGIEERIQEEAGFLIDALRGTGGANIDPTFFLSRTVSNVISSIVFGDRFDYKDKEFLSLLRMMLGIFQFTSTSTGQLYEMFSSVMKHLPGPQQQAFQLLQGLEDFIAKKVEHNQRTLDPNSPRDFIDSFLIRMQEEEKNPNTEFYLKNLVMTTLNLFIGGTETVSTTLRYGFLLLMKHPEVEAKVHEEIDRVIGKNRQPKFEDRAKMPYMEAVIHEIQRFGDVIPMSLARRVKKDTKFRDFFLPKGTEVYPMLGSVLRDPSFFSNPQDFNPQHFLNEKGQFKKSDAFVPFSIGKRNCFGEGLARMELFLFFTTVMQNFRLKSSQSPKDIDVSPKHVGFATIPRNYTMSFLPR
Protocol: as §1

CYP2B6 = biological target: T3, CYP2B6 (Homo sapiens, UniProt P20813); assay: as above; format: in vitro ADME
T3 construct: tissue celsis M008085JTA; host or cells: human liver microsomes
Protocol: as §1

CYP2C9 = biological target: T4, CYP2C9 (Homo sapiens, UniProt P11712); assay: as above; format: in vitro ADME
T4 construct: from tissue; host or cells: human liver microsomes
Protocol: as §1

CYP2D6 = biological target: T5, CYP2D6 (Homo sapiens, UniProt P10635); assay: as above; format: in vitro ADME
T5 construct: from tissue; host or cells: human liver microsomes
Protocol: as §1

CYP3A4 = biological target: T6, CYP3A4 (Homo sapiens, UniProt P08684); assay: as above; format: in vitro ADME
T6 construct: The human liver microsomes used were selected from the bank of those commercially available; from tissue; host or cells: human liver microsomes
Protocol: as §1

[1] = system: organotypic hippocampal slice cultures; assay: Neuroprotection primary screen, excitotoxin NMDA; format: cell-based; settings: NMDA 10 µM; 10 and 100 µM compound
Text: Gompound 1 : ADD Number: ItSot+ Batct: lE- Date Started:
Compound 2 : ADD Number: Froso Batct: le Date Completed i l|26-M ar -20 1 O […]
Excitotoxin: lNmoa lnsult Duration: la Uouo Solvent:
Primary Screen Results: ffi […]
Al lruuoa rolrr,| A2lr'rrr,tOa r Olrrr,t * --.- A3 lr'rnroa r oprvr + lsaoot+ t oplrl+aesogo iopM
BZ lr.rrr,ron ropr,t , -_-_-- 83 lluoa topt',r * jffi 1 4 t oopM.€sroso 1 oolrM la+eota tooptu*aasoeo roffi […]
The 'Primary screen Experiment" is a qualitative assessment of the ability of a compound to prevent excrtotoxic cell death. organotypic hippocampal slice cultures are treated *ltn r.i-."iivr-o-"spartate (NMDA) or kainic acad (KA) to induce neuronal cell death' Propidium iodide (Pl), a membrane-imper.eant cornpouna, is included in all wells of the culture plate.
Dying cells have compromised *]lT^"Toj*::, ttr. er rnJy oin "" into the cell, intercatate with DNA and fluoresce. Thus, the intensity of the Pl fluorescence is proportional to the amount of cell death in lhe individual itices. ttippocampat slice cullures are treated with the excitotoxin alone, or *i er. inoi"ui"o above, with the excitotoxin and either one -qf]bar-a Investigalional compounds at the concentrations indicated. lf neuroprotectron occurs as a consequence of the added […]
been treated with the excitotoxin alone.
(1 picture or pasted object on this page, not shown here)

[2] = system: normotensive anaesthetized rats; assay: Influence on blood pressure; format: in vivo; settings: 5 mg/kg iv, immediately after administration
Protocol: Influence on blood pressure in rats. Rats were anaesthetized with thiopental (75 mg/kg ip). The right carotid artery was cannulated with polyethylene tube filled with heparin in saline to facilitate pressure measurements using a Datamax apparatus (Columbus Instruments).

T5 sequence (P10635 whole entry): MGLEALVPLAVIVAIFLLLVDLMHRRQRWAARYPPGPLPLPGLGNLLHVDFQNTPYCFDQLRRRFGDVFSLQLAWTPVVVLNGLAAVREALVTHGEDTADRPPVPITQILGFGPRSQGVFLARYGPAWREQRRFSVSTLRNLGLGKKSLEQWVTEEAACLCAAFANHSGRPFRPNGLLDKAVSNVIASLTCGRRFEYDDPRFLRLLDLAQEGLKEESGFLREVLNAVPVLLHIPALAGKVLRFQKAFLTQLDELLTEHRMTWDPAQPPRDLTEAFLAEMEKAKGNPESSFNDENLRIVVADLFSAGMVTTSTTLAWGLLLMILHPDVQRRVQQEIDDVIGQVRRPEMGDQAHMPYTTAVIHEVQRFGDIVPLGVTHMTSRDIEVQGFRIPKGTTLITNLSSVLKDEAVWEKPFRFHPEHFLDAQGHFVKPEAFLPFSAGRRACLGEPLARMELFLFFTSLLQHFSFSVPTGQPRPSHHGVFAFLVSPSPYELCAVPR
T4 sequence (P11712 whole entry): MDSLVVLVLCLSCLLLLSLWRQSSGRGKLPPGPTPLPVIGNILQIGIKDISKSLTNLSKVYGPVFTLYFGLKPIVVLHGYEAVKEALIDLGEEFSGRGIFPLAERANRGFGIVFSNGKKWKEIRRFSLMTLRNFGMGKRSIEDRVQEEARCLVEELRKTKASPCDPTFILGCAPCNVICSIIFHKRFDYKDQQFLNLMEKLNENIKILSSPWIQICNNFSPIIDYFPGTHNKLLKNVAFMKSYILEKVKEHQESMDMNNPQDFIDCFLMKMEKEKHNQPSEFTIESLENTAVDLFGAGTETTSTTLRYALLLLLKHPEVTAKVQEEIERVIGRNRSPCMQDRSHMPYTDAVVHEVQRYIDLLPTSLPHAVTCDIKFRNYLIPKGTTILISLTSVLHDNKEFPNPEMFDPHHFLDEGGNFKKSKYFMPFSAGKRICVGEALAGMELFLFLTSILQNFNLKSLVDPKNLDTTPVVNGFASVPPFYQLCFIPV
T6 sequence (P08684 whole entry): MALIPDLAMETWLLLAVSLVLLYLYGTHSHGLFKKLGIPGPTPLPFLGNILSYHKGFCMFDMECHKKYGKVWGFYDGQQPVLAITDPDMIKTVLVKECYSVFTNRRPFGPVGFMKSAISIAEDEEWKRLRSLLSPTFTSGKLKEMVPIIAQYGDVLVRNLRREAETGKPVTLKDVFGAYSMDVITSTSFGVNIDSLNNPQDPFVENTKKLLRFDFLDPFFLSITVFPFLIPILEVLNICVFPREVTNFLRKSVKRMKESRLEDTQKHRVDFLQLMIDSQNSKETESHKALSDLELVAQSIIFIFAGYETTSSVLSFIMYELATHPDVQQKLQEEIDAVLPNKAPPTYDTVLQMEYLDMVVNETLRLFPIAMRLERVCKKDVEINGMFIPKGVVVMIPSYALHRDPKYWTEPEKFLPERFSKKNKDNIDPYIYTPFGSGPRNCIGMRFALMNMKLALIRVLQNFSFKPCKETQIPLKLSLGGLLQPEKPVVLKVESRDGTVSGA
T3 sequence (P20813 whole entry): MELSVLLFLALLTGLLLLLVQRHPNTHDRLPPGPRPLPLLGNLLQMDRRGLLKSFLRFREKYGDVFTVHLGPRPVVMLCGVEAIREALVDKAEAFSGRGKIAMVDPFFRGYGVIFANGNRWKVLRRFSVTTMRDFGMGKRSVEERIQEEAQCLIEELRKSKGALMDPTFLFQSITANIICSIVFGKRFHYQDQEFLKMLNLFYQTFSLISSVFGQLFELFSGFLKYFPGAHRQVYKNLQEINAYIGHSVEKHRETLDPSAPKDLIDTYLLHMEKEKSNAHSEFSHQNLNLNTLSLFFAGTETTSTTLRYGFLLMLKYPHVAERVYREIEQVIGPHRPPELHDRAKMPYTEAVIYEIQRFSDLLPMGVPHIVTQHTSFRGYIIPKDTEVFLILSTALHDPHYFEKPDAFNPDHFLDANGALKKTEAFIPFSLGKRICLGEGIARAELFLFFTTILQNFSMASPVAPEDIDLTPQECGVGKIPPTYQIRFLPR

| SMILES | Inhibition type (CYP1A2) | pKi (CYP1A2) | % inhibition of 500 µM concentration (CYP1A2; 500 µM, substrate at 2 µM) | Inhibition type (CYP2A6) | pKi (CYP2A6) | % inhibition of 500 µM concentration (CYP2A6; 500 µM, substrate at 10 µM) | Inhibition type (CYP2B6) | % inhibition of 500 µM concentration (CYP2B6; 500 µM, substrate at 25 µM) | Inhibition type (CYP2C9) | % inhibition of 500 µM concentration (CYP2C9; 500 µM, substrate at 400 µM) | Inhibition type (CYP2D6) | pKi (CYP2D6) | % inhibition of 500 µM concentration (CYP2D6; 500 µM, substrate at 100.0 µM) | Inhibition type (CYP3A4) | % inhibition of 500 µM concentration (CYP3A4; 500 µM, substrate at 200.0 µM) | Test Result (neuroprotection) [1] | lowering of diastolic blood pressure [2] | lowering of systolic blood pressure [2] |
| --- | --- | --- | --- | --- | --- | --- | --- | --- | --- | --- | --- | --- | --- | --- | --- | --- | --- | --- |
| CCC(CO)NCCOc1c(C)cccc1Cl (stereo not drawn) [Compound 4, R,S-2-((2-(2-chloro-6-methylphenoxy)ethyl)amino)butan-1-ol] | Mixed/competitive | 4.64 | 65 (substrate at 2 µM) % | Mixed/competitive | 3.43 | 44 (substrate at 10 µM) % | Weak inhibition | 69 (substrate at 25 µM) % | Slight inhibition | 19 (substrate at 400 µM) % | Mixed/competitive | 5.85 | 100 (substrate at 100.0 µM) % | Weak inhibition | 52 (substrate at 200.0 µM) % | No Neuroprotection | – | – |
| CCC(CO)NCCOc1c(C)cccc1Cl (stereo not drawn) [KM-408, R,S-2-((2-(2-chloro-6-methylphenoxy)ethyl)amino)butan-1-ol hydrochloride] | – | – | – | – | – | – | – | – | – | – | – | – | – | – | – | – | approximately 21 mmHg | approximately 21 mmHg |
